Results on two molecules are retold here after patent US20100279976A1, “USE OF ARTEMISININ AND ITS DERIVATIVES IN CANCER THERAPY” (SHANGHAI INSTITUTES FOR BIOLOGICAL SCIENCES, CAS, priority 2009, published 2010).

One assay has as its system HepG2 cells. Put plainly: Annexin V-FITC apoptosis assay, HepG2. Format: cell-based, human. How it is done:
ART- and DHA-induced apoptosis alone or in combination with gemcitabine in HepG2 and Hep3B cells or in combination with carboplatin in ovarian cancer cells may be determined by flow cytometry using the Annexin V-FITC Apoptosis Detection kit following the manufacturer's instructions. Briefly, 2×10^5 cells may be treated with ART and DHA ([…]) or 10 μg/L gemcitabine for 48 h. The cells may then be harvested, washed in PBS, and incubated with Annexin V and propidium iodide for staining in binding buffer at room temperature for 10 min in the dark. The stained cells may be analyzed using the FACSAria instrument.

A further assay relates to ovarian cancer cells. Put plainly: MTT cell viability assay, ovarian cancer cells (line not specified). Format: cell-based. To be noted: Homo sapiens, 48 hrs, read-out: inhibition of viability. As to the method: The effects of ART derivatives on the viability of the aforementioned cells may be determined using the MTT assay. Briefly, 2,000 cells per well were plated in triplicate in 96-well plates. After a 24-h incubation, the cells may be treated with varying concentrations of ART derivatives (0, 1, 5, 10, 25, 50, and 100 μmol/L) for 48 h. The MTT assay may be performed according to the manufacture's instruction and the resultant formazan crystals may be dissolved in DMSO (100 μL). The absorbance may be then recorded at 540 nm. The effects of ART derivatives on cell viability may be assessed by comparing the percent cell viability of the treated cells with the vehicle (DMSO)-treated control cells, which may be arbitrarily assigned at 100% viability. The experiment may be repeated thrice under the same conditions.

Another assay concerns OVCAR-3 xenograft tumors. Briefly: OVCAR-3 xenograft model in nude mice. Type of assay: in vivo. To be noted: 5 days/week. How it is done:
Four to six week old female athymic nude mice (BALB/c, nu/nu) may be purchased from Shanghai Experimental Animal Center (Shanghai, China). Animal studies are approved by the Institute for Nutritional Sciences. The tumor xenograft model may be established as follows. Briefly, A2780 and OVCAR-3 cells may be harvested and re-suspended in serum-free RPMI 1640 medium containing 20% (v/v) Matrigel (BD Biosciences, Bedford, Mass., USA). Aliquots of cells (˜5×10^6 cells/0.2 ml) may be injected subcutaneously into the left inguinal area of the mice. The tumor growth and body weight of the mice may be monitored every other day. Tumor mass may be determined. Mice bearing palpable tumors (˜70 mg) may be randomly divided into treatment and control groups n=5 mice/group). CBP may be dissolved in saline, and DHA may be dissolved in cremophor EL:ethanol:saline (5:5:90, v/v/v). DHA may be administered via i.p. injection at doses of 10 and 25 mg/kg/5 days/week for 3 weeks) alone or combined with CBP (at a single dose of 120 mg/kg, once on day 0). The control group receives saline only. Mice may be killed on day 18. Tumors may be carefully excised, trimmed of extraneous fat or connective tissue, and homogenized in RIPA buffer (100 mg tumor tissue/1 ml RIPA) and prepared for immunoblotting analysis as described above.

For another assay, the system named is OVCAR-3 cells. Put plainly: Annexin V-FITC apoptosis assay, OVCAR-3. To be noted: for increase in apoptosis versus control: 24 hrs. Type of assay: cell-based, human. As to the method:
ART- and DHA-induced apoptosis alone or in combination with gemcitabine in HepG2 and Hep3B cells or in combination with carboplatin in ovarian cancer cells may be determined by flow cytometry using the Annexin V-FITC Apoptosis Detection kit following the manufacturer's instructions. […] The cells may then be harvested, washed in PBS, and incubated with Annexin V and propidium iodide for staining in binding buffer at room temperature for 10 min in the dark. The stained cells may be analyzed using the FACSAria instrument.

Turning to `C[C@@H]1CC[C@H]2[C@@H](C)C(=O)O[C@@H]3O[C@@]4(C)CC[C@@H]1[C@]32OO4` [ART, artemisinin], the apoptotic cells in the assay with HepG2 cells (HepG2, 1 μmol/L, 48 h (0 μmol/L: 7%)) was 9%; with HepG2 cells (HepG2, 10 μmol/L, 48 h), 14.95%; in the assay with HepG2 cells (HepG2, 25 μmol/L, 48 h), 15.45%; in the assay on HepG2 cells (HepG2, 50 μmol/L, 48 h), 16.45%.
As for `C[C@H]1[C@@H](O)O[C@@H]2O[C@@]3(C)CC[C@H]4[C@H](C)CC[C@@H]1[C@@]24OO3` [DHA, dihydroartemisinin], in the assay with ovarian cancer cells (1 μM), the cytotoxicity at 1 µM worked out at 24%. Also, in the assay on ovarian cancer cells (500 μM), the cytotoxicity at 500 µM came to 95%. The figures for the tumor growth inhibition in the assay with OVCAR-3 xenograft tumors (DHA 10 mg/kg i.p.) and in the assay on OVCAR-3 xenograft tumors (DHA 25 mg/kg i.p.) were 14% and 37%, respectively. In addition, the “increase in apoptosis versus control” value is listed as 18 fold in the assay with OVCAR-3 cells (OVCAR-3, 25 μM) and 22 fold in the assay with OVCAR-3 cells (OVCAR-3, 50 μM). Besides, the “rate of apoptosis (control regarded as 100%)” value in the assay with OVCAR-3 cells (OVCAR-3, 24 hrs, DHA 1 μM, CBP 500 μM, alone or combined) came out at 266%.
